This is an account of results in US20060257843A1 (priority 2002, published 2006).

Read-outs that look alike come from different tables or passages of the source.

The subject of data set [1] is primary cultures of cortex.
The subject of data set [2] is primary cortical cultures. The conditions noted are these: 5% Triton; 20 minutes incubation.
In the next data set the test system is cortical cells. The conditions noted are these: 100 uM tolbutamide.
The target in the next data set is F425G Shaker mutation (Drosophila melanogaster, UniProt P08510, F425G). The conditions noted are these: cited from earlier work.
F425G Shaker mutation, sequence (P08510 whole entry F425G): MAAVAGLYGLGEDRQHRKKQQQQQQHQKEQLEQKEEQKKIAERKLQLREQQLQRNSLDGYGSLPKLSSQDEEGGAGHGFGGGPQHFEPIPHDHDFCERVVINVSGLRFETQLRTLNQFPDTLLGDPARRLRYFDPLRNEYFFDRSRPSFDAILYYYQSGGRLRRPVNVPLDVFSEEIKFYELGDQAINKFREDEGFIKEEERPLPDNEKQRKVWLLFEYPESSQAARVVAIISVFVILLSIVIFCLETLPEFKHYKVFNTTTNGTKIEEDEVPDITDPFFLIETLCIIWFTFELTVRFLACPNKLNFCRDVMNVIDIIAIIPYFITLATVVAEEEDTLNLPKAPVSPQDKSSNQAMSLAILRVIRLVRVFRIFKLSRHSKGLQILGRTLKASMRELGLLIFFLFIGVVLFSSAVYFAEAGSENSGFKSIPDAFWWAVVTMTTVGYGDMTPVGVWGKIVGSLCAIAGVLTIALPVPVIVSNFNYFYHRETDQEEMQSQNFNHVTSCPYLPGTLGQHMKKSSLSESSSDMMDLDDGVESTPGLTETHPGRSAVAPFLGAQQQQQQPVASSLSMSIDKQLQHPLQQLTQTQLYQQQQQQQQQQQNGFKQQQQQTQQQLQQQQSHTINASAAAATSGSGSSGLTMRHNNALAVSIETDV

Consider “Iberiotoxin (QFTDVDCSVSKECWSVCKDLFGVDRGKCMGKKCRCYQ; UniProt P24663 1-37, looked up) [IBTX]”, for which, in data set [1], the “effect of K+ channel antagonist on κ-PVIIA-induced hyperpolarization” value is “without any detectable effect”.
Consider Triton [reference compound], for which the “increase in fluorescence, Enzchek protease-sensitive dye” value in data set [2] is reported as approximately 14%.
Regarding `CCCCNC(=O)NS(=O)(=O)c1ccc(C)cc1` [Tolbutamide, reference compound], the “effect of tolbutamide on κ-PVIIA protection against glutamate cytotoxicity” value with cortical cells was “blocked”.
For `COc1ccc(Cl)cc1C(=O)NCCc1ccc(S(=O)(=O)NC(=O)NC2CCCCC2)cc1` [Glibenclamide], the “effect of Glibenclamide on κ-PVIIA-induced hyperpolarization” value in data set [1] (cortical preparations, Glibenclamide 10 nM, 100 nM κ-PVIIA) is listed as “significant reductions”.
As to `Nc1ccncc1` [4-AP, 4-aminopyridine], the “effect of K+ channel antagonist on κ-PVIIA-induced hyperpolarization” value in data set [1] (cortical preparations, 100 nM κ-PVIIA) was “without any detectable effect”.
With charybdotoxin [reference compound], the “increase of charybdotoxin affinity by F425G Shaker mutation” value with F425G Shaker mutation is recorded as “three orders of magnitude”.
